From the NIST ThermoML archive (doi:10.1016/j.jct.2017.08.004)

Experiment: molar heat capacity at constant pressure
Conditions: 101.33 kPa, Small sample (50 mg) DSC

O[C@H]1[C@H](O)[C@@H](O)[C@H](O)[C@@H](O)[C@H]1O [cis-1,2,3,5-trans-4,6-cyclohexanehexol]
Conditions | molar heat capacity at constant pressure [J/K/mol]
315.15 K, Crystal | 232.92
316.15 K, Crystal | 233.85
317.15 K, Crystal | 235
318.15 K, Crystal | 235.92
319.15 K, Crystal | 236.78
320 K, Crystal | 237.36
320.15 K, Crystal | 237.59
321.15 K, Crystal | 238.68
322.15 K, Crystal | 239.43
323.15 K, Crystal | 240.32
324.15 K, Crystal | 241.22
325 K, Crystal | 241.8
325.15 K, Crystal | 242.06
326.15 K, Crystal | 242.94
327.15 K, Crystal | 243.8
328.15 K, Crystal | 244.59
329.15 K, Crystal | 245.47
330 K, Crystal | 246.17
330.15 K, Crystal | 246.24
331.15 K, Crystal | 247.08
332.15 K, Crystal | 247.89
333.15 K, Crystal | 248.82
334.15 K, Crystal | 249.61
335 K, Crystal | 250.49
335.15 K, Crystal | 250.35
336.15 K, Crystal | 251.33
337.15 K, Crystal | 251.96
338.15 K, Crystal | 252.7
339.15 K, Crystal | 253.75
340 K, Crystal | 254.75
340.15 K, Crystal | 254.49
341.15 K, Crystal | 255.37
342.15 K, Crystal | 256.24
343.15 K, Crystal | 257.08
344.15 K, Crystal | 258
345 K, Crystal | 258.97
345.15 K, Crystal | 258.77
346.15 K, Crystal | 259.66
347.15 K, Crystal | 260.52
348.15 K, Crystal | 261.32
349.15 K, Crystal | 262.12
350 K, Crystal | 263.15
350.15 K, Crystal | 262.98
351.15 K, Crystal | 263.82
352.15 K, Crystal | 264.56
353.15 K, Crystal | 265.46
354.15 K, Crystal | 266.43
355 K, Crystal | 267.28
355.15 K, Crystal | 268.62
356.15 K, Crystal | 269.08
357.15 K, Crystal | 269.64
358.15 K, Crystal | 270.31
359.15 K, Crystal | 271.05
360 K, Crystal | 271.38
360.15 K, Crystal | 271.91
361.15 K, Crystal | 272.57
362.15 K, Crystal | 273.45
363.15 K, Crystal | 274.41
364.15 K, Crystal | 275.15
365 K, Crystal | 275.43
365.15 K, Crystal | 275.9
366.15 K, Crystal | 276.72
367.15 K, Crystal | 277.6
368.15 K, Crystal | 278.26
369.15 K, Crystal | 279.12
370 K, Crystal | 279.44
370.15 K, Crystal | 280
371.15 K, Crystal | 280.66
372.15 K, Crystal | 281.41
373.15 K, Crystal | 282.03
374.15 K, Crystal | 282.8
375 K, Crystal | 283.41
375.15 K, Crystal | 283.66
376.15 K, Crystal | 284.41
377.15 K, Crystal | 285.16
378.15 K, Crystal | 286.02
379.15 K, Crystal | 286.77
380 K, Crystal | 287.33
380.15 K, Crystal | 287.5
381.15 K, Crystal | 288.2
382.15 K, Crystal | 289.07
383.15 K, Crystal | 289.93
384.15 K, Crystal | 290.58
385 K, Crystal | 291.21
385.15 K, Crystal | 291.5
386.15 K, Crystal | 292.25
387.15 K, Crystal | 292.92
388.15 K, Crystal | 293.5
389.15 K, Crystal | 294.35
390 K, Crystal | 295.04
390.15 K, Crystal | 295.24
391.15 K, Crystal | 295.7
392.15 K, Crystal | 296.49
393.15 K, Crystal | 297.22
394.15 K, Crystal | 297.96
395 K, Crystal | 298.83
395.15 K, Crystal | 298.67
396.15 K, Crystal | 299.31
397.15 K, Crystal | 300.06
398.15 K, Crystal | 300.77
399.15 K, Crystal | 301.51
400 K, Crystal | 302.58
400.15 K, Crystal | 302.31
401.15 K, Crystal | 303.15
402.15 K, Crystal | 303.73
403.15 K, Crystal | 304.44
404.15 K, Crystal | 305.17
405 K, Crystal | 306.28
405.15 K, Crystal | 306.03
406.15 K, Crystal | 306.79
407.15 K, Crystal | 307.48
408.15 K, Crystal | 308.4
409.15 K, Crystal | 309.1
410 K, Crystal | 309.94
410.15 K, Crystal | 309.8
411.15 K, Crystal | 310.58
412.15 K, Crystal | 311.34
413.15 K, Crystal | 311.98
414.15 K, Crystal | 312.89
415 K, Crystal | 313.58
415.15 K, Crystal | 313.72
416.15 K, Crystal | 314.29
417.15 K, Crystal | 315.14
418.15 K, Crystal | 315.93
419.15 K, Crystal | 316.51
420 K, Crystal | 317.18
420.15 K, Crystal | 317.13
421.15 K, Crystal | 317.97
422.15 K, Crystal | 318.68
423.15 K, Crystal | 319.32
424.15 K, Crystal | 320.07
425 K, Crystal | 320.78
425.15 K, Crystal | 320.77
426.15 K, Crystal | 321.54
427.15 K, Crystal | 322.27
428.15 K, Crystal | 322.94
429.15 K, Crystal | 323.6
430 K, Crystal | 324.37
430.15 K, Crystal | 324.79
431.15 K, Crystal | 325.38
432.15 K, Crystal | 325.96
433.15 K, Crystal | 326.58
434.15 K, Crystal | 327.17
435 K, Crystal | 327.98
435.15 K, Crystal | 328.13
436.15 K, Crystal | 328.94
437.15 K, Crystal | 329.55
438.15 K, Crystal | 330.45
439.15 K, Crystal | 331.25
440 K, Crystal | 331.62
440.15 K, Crystal | 332.08
441.15 K, Crystal | 332.75
442.15 K, Crystal | 333.52
443.15 K, Crystal | 334.28
444.15 K, Crystal | 334.91
445 K, Crystal | 335.31
445.15 K, Crystal | 335.69
446.15 K, Crystal | 336.45
447.15 K, Crystal | 337.11
448.15 K, Crystal | 337.97
449.15 K, Crystal | 338.86
450 K, Crystal | 339.09
450.15 K, Crystal | 339.61
451.15 K, Crystal | 340.28
452.15 K, Crystal | 340.91
453.15 K, Crystal | 341.76
454.15 K, Crystal | 342.6
455 K, Crystal | 342.97
455.15 K, Crystal | 343.62
456.15 K, Crystal | 344.29
457.15 K, Crystal | 345.24
458.15 K, Crystal | 346.14
459.15 K, Crystal | 346.94
460 K, Crystal | 346.99
460.15 K, Crystal | 347.73
461.15 K, Crystal | 348.37
462.15 K, Crystal | 349.07
463.15 K, Crystal | 349.91
464.15 K, Crystal | 350.64
465 K, Crystal | 351.2
465.15 K, Crystal | 351.55
466.15 K, Crystal | 352.42
467.15 K, Crystal | 353.08
468.15 K, Crystal | 353.97
469.15 K, Crystal | 354.86
470 K, Crystal | 355.62
470.15 K, Crystal | 355.7
471.15 K, Crystal | 356.6
472.15 K, Crystal | 357.44
473.15 K, Crystal | 358.19
474.15 K, Crystal | 359.01
475 K, Crystal | 360.31
475.15 K, Crystal | 359.91
476.15 K, Crystal | 360.87
477.15 K, Crystal | 361.75
478.15 K, Crystal | 362.53
479.15 K, Crystal | 363.44
480 K, Crystal | 365.32
480.15 K, Crystal | 364.51
481.15 K, Crystal | 365.73
482.15 K, Crystal | 366.73
485 K, Crystal | 370.71
513.05 K, Liquid | 508.49
513.15 K, Liquid | 508.52
514.15 K, Liquid | 508.4
515 K, Liquid | 506.99
515.15 K, Liquid | 507.66
516.15 K, Liquid | 505.87
517.15 K, Liquid | 506.07
518.15 K, Liquid | 506.35
519.15 K, Liquid | 506.73
520 K, Liquid | 507.22
520.15 K, Liquid | 506.91
521.15 K, Liquid | 507.17
522.15 K, Liquid | 507.28
523.15 K, Liquid | 507.22
524.15 K, Liquid | 507.46
525 K, Liquid | 507.46
525.15 K, Liquid | 506.85
526.15 K, Liquid | 507.2
527.15 K, Liquid | 506.47
528.15 K, Liquid | 505.89
529.15 K, Liquid | 506.19
530 K, Liquid | 507.69
530.15 K, Liquid | 507.15
531.15 K, Liquid | 507.89
532.15 K, Liquid | 508.08
533.15 K, Liquid | 508.54
534.15 K, Liquid | 508.66
535 K, Liquid | 507.93
535.15 K, Liquid | 508.27
536.15 K, Liquid | 508.3
537.15 K, Liquid | 508.67
538.15 K, Liquid | 508.45
539.15 K, Liquid | 508.21
540 K, Liquid | 508.16
540.15 K, Liquid | 508.39
541.15 K, Liquid | 508.54
542.15 K, Liquid | 508.33
543.15 K, Liquid | 508.45
